Experimental data: patent US20230183310A1, “Polypeptide Compounds and Use Thereof in the Prevention or Treatment of Diabetes or Diabetic Complications” (Shenzhen Turier Biotech Co., Ltd., priority 2020, published 2023)
*1 amine or outer side, *2 acyl side, *3 side chain or, on linkers, in order; H or OH if unused. Primed or numbered codes have the meaning given here. Where no end group is shown, it is not given here. Side-chain parts run from the residue outwards. [ ]: non-standard residue; d: D form. The star is where a group is joined. C20 diacid = O=C(O)CCCCCCCCCCCCCCCCCCC(=O)*; γGlu = O=C(O)[C@H](CCC(=O)[*:2])N[*:1]; Iva = CC[C@](C)(N)C(=O)O; PEG2′ = not defined here; Aib = CC(C)(N)C(=O)O

Columns and labels:
[1] = test system: C57BL/6J mice; experiment: Oral glucose tolerance (OGTT), repeated glucose loads followed to 24 h after one s.c. dose; assay type: in vivo; conditions: four OGTT curves (0-22 h); 100 μg/kg subcutaneously
Description: Eight-week-old male C57BL/6J mice (Model Animal Research Center, Nanjing University) were randomly grouped according to similar blood glucose (assessed by blood samples obtained from the tail tip), with six mice in each group. […] The initial blood samples (fasted blood glucose levels) were obtained after about 4 h. Subsequently, an oral dose of glucose (2 g/kg) was administered and the animals were placed back in their holding cages (t=0). […] The oral dose of glucose was then repeated at 8 h of administration, 12 h of administration and […], and blood glucose changes were detected and followed until 24 hours. The data were processed using the software GraphPadPrism to make a line graph of blood glucose changes, and the area under the curve was calculated to obtain an AUC graph, and the results are shown in FIG. 1.

[2] = test system: FN protein (fibronectin); experiment: Western blot of FN protein in high glucose-induced in vitro renal fibrosis cell model; assay type: cell-based, rat; conditions: 10 μM; 30 mmol/L glucose; 48 h; mesangial and renal epithelial cells
From the text: Hyperglycemia and increased production of glycosylation end products will cause morphological changes such as proliferation and hypertrophy of glomerular mesangial cells, increase in extracellular matrix (ECM) and mesangial expansion, which will eventually lead to the loss of its physiological function. […] Therefore, this example used high glucose to induce MCS mesangial cells and NRK renal epithelial cells to construct an in vitro renal fibrosis cell model for screening medicaments useful for the treatment of diabetic nephropathy. The renal mesangial cell strain GMC and glomerular epithelial cells mTEC used in this example were both cells kept in the applicant's laboratory (both were extracted from rat renal primary cells) and cultured in low sugar medium containing 10% fetal bovine serum. The cells were starved with serum-free culture medium for 24 h when grew to 70% confluence. The cells were divided into the following 9 groups by adjusting the glucose concentration as follows: […]

[3] = test system: db/db diabetic mice; experiment: Treatment of 12-week-old db/db diabetic mice: blood glucose, OGTT, ITT, ALT/AST, diabetic nephropathy indices; assay type: in vivo; conditions: for weekly blood glucose (hypoglycemic effect): FIG. 4A, blood glucose at normal levels at week 1; for weekly blood glucose (hypoglycemic effect) / improving oral glucose tolerance (OGTT) / improving insulin resistance (ITT) / ALT and AST in serum (hepatoprotective function): 120 μg/kg s.c. daily; for improving oral glucose tolerance (OGTT): FIG. 4B, week 4; for improving insulin resistance (ITT): FIG. 4C, week 5; for ALT and AST in serum (hepatoprotective function): FIG. 4D; for H&E staining of kidneys: glomerular adhesion, ameliorative and therapeutic effects: FIG. 5B; for H&E staining of kidneys: glomerular adhesion, ameliorative and therapeutic effects / PAS staining of kidneys: ameliorative effects on glomerular mesangial region / collagen content (Sirius red, FN and α-SMA staining of kidneys): after 8 weeks; for H&E staining of kidneys: glomerular adhesion, ameliorative and therapeutic effects / collagen content (Sirius red, FN and α-SMA staining of kidneys): compared to semaglutide, SAR425899 and MED C18-acid groups; for PAS staining of kidneys: ameliorative effects on glomerular mesangial region: FIG. 5C; for collagen content (Sirius red, FN and α-SMA staining of kidneys): FIGS. 5D to 5F
Description: Normal mice born in the same litter; DC group: db/db mice control group). Blood glucose and body weight were measured on alternate days after daily administration of the medicament, and water intake and food intake were measured once a week. OGTT was measured at week 4, insulin tolerance (ITT) was measured at week 5, metabolism of mice was examined using mouse metabolic cages at weeks 6-7, and various serological and pathological indices were taken at week 8.
Type 2-diabetes mice were characterized by obesity, insulin resistance, hyperglycemia, dyslipidemia and hepatic fat vacuole-like degeneration.
After 6 weeks of medical treatment, the mice was collected for urine using metabolic cages, and the protein content in the urine was detected using relevant kits. After 7 weeks of medical treatment, the material was taken and blood was used to detect serological indicators such as blood creatinine and urea nitrogen.

[4] = test system: db/db diabetic mice; experiment: Dose determination in 8-week-old db/db diabetic mice: blood glucose and body weight; assay type: in vivo; conditions: for subsequent blood glucose course (long-lasting effect): from day 3 / after days 3-5
Description: The db/db mice diabetic model (purchased from Nanjing University-Nanjing Institute of Biomedical Research, about 8 weeks, and blood glucose and body weight were measured to ensure the smooth subsequent experiments) was obtained, and the model mice were randomly divided into 12 groups (including polypeptide compounds 3, 8, 13, 15, semaglutide and physiological saline groups), with 6 mice in each group and no difference in basal body weight and blood glucose. Each group was injected subcutaneously with compound 3 (80 and 120 μg/kg, 2 groups), compound 8 (80 and 120 μg/kg, 2 groups), compound 13 (80 and 120 μg/kg, 2 groups), compound 15 (80 and 120 μg/kg, 2 groups), semaglutide (80 and 120 μg/kg, 2 groups) and physiological saline (DN group: normal mice born in the same litter; DC group: db/db mice control group) every day or every other day.
Blood glucose and body weight of mice were measured after daily administration and 6 h fasting on alternate days.

[5] = FIG. 3A, daily s.c., 120 μg/kg, vs saline DC group
[6] = FIG. 3B, every other day s.c., 80 μg/kg
[7] = FIG. 3B, every other day s.c., 120 μg/kg

His-Aib-Gln-Gly-Thr-Phe-Thr-Ser-Asp-Lys(Gly-Gly-Ser-Gly-Ser-Gly-γGlu-CO(CH2)18-COOH)-Ser-Lys-Tyr-Leu-Asp-Glu-Arg-Ala-Ala-Gln-Asp-Phe-Iva-Gln-Trp-Leu-Leu-Asp-Gly-Gly-Pro-Ser-Ser-Gly-Aib-Pro-Pro-Pro-Ser (H[Aib]QGTFTSDKSKYLDERAAQDF[Iva]QWLLDGGPSSG[Aib]PPPS; not fully specified (residue 10, C-terminus)) [Compound 15]
long-acting hypoglycemic effects compared to semaglutide [1]: superior and significant long-acting hypoglycemic effects
FN protein expression (Western blot) [2]: inhibited FN expression more significantly
weekly blood glucose (hypoglycemic effect) [3]: significant hypoglycemic effects
improving oral glucose tolerance (OGTT) [3]: performed more excellent
improving insulin resistance (ITT) [3]: performed more excellent
ALT and AST in serum (hepatoprotective function) [3]: more excellent hepatoprotective functions
H&E staining of kidneys: glomerular adhesion, ameliorative and therapeutic effects [3]: more significant
PAS staining of kidneys: ameliorative effects on glomerular mesangial region [3]: more significant
collagen content (Sirius red, FN and α-SMA staining of kidneys) [3]: improved more significantly
body weight (weight-lowering effect) ([4]; FIG. 3A, daily s.c.): better weight-lowering effect
weight-lowering effect relative to compounds 3 and 8 ([4]; FIG. 3A, daily s.c.): superior to that of compounds 3 and 8
blood glucose (glucose-lowering effect) ([4]; FIG. 3A, daily s.c., 80 μg/kg): significant glucose-lowering effect with long-lasting effect
blood glucose (glucose-lowering effect) [4, 5]: good glucose-lowering effect in 3-5 days
effect relative to polypeptide compounds 3 and 8 ([4]; FIG. 3B, every other day s.c.): better than that of polypeptide compounds 3 and 8
overall hypoglycemic effect ([4]; FIG. 3B, every other day s.c.): more excellent hypoglycemic effect
blood glucose (hypoglycemic effect) [4, 6]: significant hypoglycemic effect on day 3, but the subsequent blood glucose level did not change much and tended to be stable
blood glucose (hypoglycemic effect) [4, 7]: good hypoglycemic effect on days 3-5
subsequent blood glucose course (long-lasting effect) [4, 7]: kept good hypoglycemic effect

His-Aib-Gln-Gly-Thr-Phe-Thr-Ser-Asp-Lys(PEG2-PEG2-γGlu-CO(CH2)18CO2H)-Ser-Lys-Tyr-Leu-Asp-Glu-Arg-Ala-Ala-Gln-Asp-Phe-Iva-Gln-Trp-Leu-Leu-Asp-Gly-Gly-Pro-Ser-Ser-Gly-Aib-Pro-Pro-Pro-Ser-NH2 (H[Aib]QGTFTSDK([PEG2′-PEG2′-γGlu-C20 diacid])SKYLDERAAQDF[Iva]QWLLDGGPSSG[Aib]PPPS-NH2) [Compound 8]
long-acting hypoglycemic effects compared to semaglutide [1]: superior and significant long-acting hypoglycemic effects
FN protein expression (Western blot) [2]: inhibited FN expression more significantly
weekly blood glucose (hypoglycemic effect) [3]: significant hypoglycemic effects
improving oral glucose tolerance (OGTT) [3]: performed more excellent
improving insulin resistance (ITT) [3]: performed more excellent
ALT and AST in serum (hepatoprotective function) [3]: more excellent hepatoprotective functions
H&E staining of kidneys: glomerular adhesion, ameliorative and therapeutic effects [3]: more significant
PAS staining of kidneys: ameliorative effects on glomerular mesangial region [3]: more significant
collagen content (Sirius red, FN and α-SMA staining of kidneys) [3]: improved more significantly
body weight (weight-lowering effect) ([4]; FIG. 3A, daily s.c.): better weight-lowering effect
blood glucose (glucose-lowering effect) ([4]; FIG. 3A, daily s.c., 80 μg/kg): significant glucose-lowering effect
blood glucose (glucose-lowering effect) [4, 5]: good glucose-lowering effect in 3-5 days
overall hypoglycemic effect ([4]; FIG. 3B, every other day s.c.): more excellent hypoglycemic effect
blood glucose (hypoglycemic effect) [4, 6]: first decrease and then increase, and the overall hypoglycemic effect was significant
blood glucose (hypoglycemic effect) [4, 7]: good hypoglycemic effect on days 3-5
subsequent blood glucose course (long-lasting effect) [4, 7]: the blood glucose did not change much
